Structures can show the parent of a compound that is named as a salt.
Molecular target: T1, Full length human TNNI3K (hTNNI3K) (Homo sapiens, UniProt Q59H18)
T1 construct: His-MBP-TEV-Full length human TNNI3K (hTNNI3K); His (N); MBP (N); TEV cleavage site (N); made in house; host or cells: baculovirus system (printed 'Baculokinase system')
T1 sequence (Q59H18 1-835): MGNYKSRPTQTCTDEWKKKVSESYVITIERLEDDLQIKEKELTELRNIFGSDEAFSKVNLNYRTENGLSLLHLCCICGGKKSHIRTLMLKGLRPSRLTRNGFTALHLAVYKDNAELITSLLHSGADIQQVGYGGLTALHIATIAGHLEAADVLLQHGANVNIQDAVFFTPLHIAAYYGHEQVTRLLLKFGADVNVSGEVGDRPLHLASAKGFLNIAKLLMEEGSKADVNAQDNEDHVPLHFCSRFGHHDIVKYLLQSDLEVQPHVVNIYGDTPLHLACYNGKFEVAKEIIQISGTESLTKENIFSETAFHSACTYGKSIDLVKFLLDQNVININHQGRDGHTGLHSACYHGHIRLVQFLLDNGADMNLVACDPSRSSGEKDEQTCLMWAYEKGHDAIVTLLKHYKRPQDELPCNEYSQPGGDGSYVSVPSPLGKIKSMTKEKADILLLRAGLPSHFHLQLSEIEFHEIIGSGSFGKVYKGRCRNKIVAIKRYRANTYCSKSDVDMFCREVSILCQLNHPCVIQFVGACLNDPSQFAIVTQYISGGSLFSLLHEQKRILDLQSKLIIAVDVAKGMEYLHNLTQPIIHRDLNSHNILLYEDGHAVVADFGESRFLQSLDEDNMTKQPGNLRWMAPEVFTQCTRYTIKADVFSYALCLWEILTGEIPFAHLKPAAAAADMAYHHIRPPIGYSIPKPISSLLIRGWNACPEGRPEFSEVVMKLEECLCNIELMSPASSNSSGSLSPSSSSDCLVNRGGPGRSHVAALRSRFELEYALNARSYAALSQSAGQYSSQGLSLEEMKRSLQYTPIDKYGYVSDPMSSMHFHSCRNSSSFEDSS
Assay: Fluorescent polarization assay of compound inhibition on hTNNI3K ATP binding (Biological Assay Method I)
Settings: displacement of fluorescent ligand from hTNNI3K ATP binding pocket; mean of a minimum of 2 experiments; read-out: pXC50 (the source's name) (converted)
Text: Materials: His-MBP-TEV-Full length human TNNI3K (hTNNI3K) was expressed in Baculokinase system and purified from amylase affinity column followed by Superdex200. The fluorescent ligand 5-({[2-({[3-({4-[(5-hydroxy-2-methylphenyl)amino]-2-pyrimidinyl}amino)phenyl]carbonyl}amino)ethyl]amino}carbonyl)-2-(6-hydroxy-3-oxo-3H-xanthen-9-yl)benzoic acid was used. The preparation of this fluorescent ligand is disclosed in U.S. Provisional Patent Application No. 61/237,815 filed Aug. 28, 2009, the disclosure of which is incorporated by reference herein. The other buffer components, including MgCl2 (Catalog Number M1028), Bis-Tris (Catalog Number B7535), DTT (Catalog Number D9779) and Chaps (Catalog Number C3023) were purchased from Sigma-Aldrich.
Biological Assay Method I:
A fluorescent polarization assay was used to determine does response of compound inhibition on hTNNI3K ATP binding.
Solution 1: Ten (10) mL of a 5 nM 5-({[2-({[3-({4-[(5-hydroxy-2-methylphenyl)amino]-2-pyrimidinyl}amino)phenyl]carbonyl}amino)ethyl]amino}carbonyl)-2-(6-hydroxy-3-oxo-3H-xanthen-9-yl)benzoic acid solution (Solution 1) was prepared by mixing 5 μL of 1M DTT and 80 μL of 10% (w/v) Chaps and 5 μL of a 10 μM 5-({[2-({[3-({4-[(5-hydroxy-2-methylphenyl)amino]-2-pyrimidinyl}amino)phenyl]carbonyl}amino) ethyl]amino}carbonyl)-2-(6-hydroxy-3-oxo-3H-xanthen-9-yl)benzoic acid stock solution into 9910 μL buffer (20 mM Tris, 15 mM MgCl2, pH 7.5). (Stock solution: 10 μM solution of 5-({[2-({[3-({4-[(5-hydroxy-2-methylphenyl)amino]-2-pyrimidinyl}amino)phenyl]carbonyl}amino)ethyl]amino}carbonyl)-2-(6-hydroxy-3-oxo-3H-xanthen-9-yl)benzoic acid in 100% DMSO)
Solution 2 was formed by mixing 53.8 μL of 2.6 μM hTNNI3K with a 6946.2 μL aliquot of Solution 1 (the above 5-({[2-({[3-({4-[(5-hydroxy-2-methylphenyl)amino]-2-pyrimidinyl}amino)phenyl]carbonyl}amino)ethyl]amino}carbonyl)-2-(6-hydroxy-3-oxo-3H-xanthen-9-yl)benzoic acid solution) to make up a 7 mL of mixture of hTNNI3K and 5-({[2-({[3-({4-[(5-hydroxy-2-methylphenyl)amino]-2-pyrimidinyl}amino)phenyl]carbonyl}amino)ethyl]amino}carbonyl)-2-(6-hydroxy-3-oxo-3H-xanthen-9-yl)benzoic acid (Solution 2).
Fifty (50) nL of inhibitors in DMSO (or DMSO controls) were stamped into a 384-well low volume Greiner black plate, followed by addition of 5 μL of Solution 1 to column 18 and 5 μL Solution 2 to columns 1-17 and 19-24 of the plate. The plate was then spun at 500 rpm for 30 seconds and incubated at room temperature for 60 minutes. After that, the fluorescent polarization was measured on Analyst (ex/em: 485/530 nm, Dichroic: 505). For dose response experiments, normalized data were fit by ABASE/XC50 and pXC50=(log((b−y)/(y−a)))/d−log(x), where x is the compound concentration and y is the % activity at specified compound concentration, a is the minimum % activity, b is the maximum % activity, and d is the Hill slope.
The pXC50s are averaged to determine a mean value, for a minimum of 2 experiments.

Row | Compound | IC50
1 | CNS(=O)(=O)c1ccc(S(C)(=O)=O)c(Nc2ncnc3cc(OC)cc(OC)c23)c1 [Example 77, 3-{[5,7-bis(methyloxy)-4-quinazolinyl]amino}-N-methyl-4-(methylsulfonyl)benzenesulfonamide trifluoroacetate] | 10 to 100 nM
2 | CNS(=O)(=O)c1ccc(SC)c(Nc2ncnc3cc(OCCOC)c(OCCOC)cc23)c1 [Example 20, 3-[(6,7-bis{[2-(methyloxy)ethyl]oxy}-4-quinazolinyl)amino]-N-methyl-4-(methylthio) benzenesulfonamide] | 10 to 100 nM
3 | CNS(=O)(=O)c1ccc(OC(C)C)c(Nc2ncnc3cc(OC)c(OC)cc23)c1 [Example 5, 3-{[6,7-bis(methyloxy)-4-quinazolinyl]amino}-N-methyl-4-[(1-methylethyl)oxy]benzenesulfonamide] | 10 to 100 nM
4 | CNS(=O)(=O)c1ccc(OCC(F)(F)F)c(Nc2ncnc3cc(OC)c(OC)c(OC)c23)c1 [Example 48, N-methyl-4-[(2,2,2-trifluoroethyl)oxy]-3-{[5,6,7-tris(methyloxy)-4-quinazolinyl]amino}benzene sulfonamide hydrochloride] | 1 to 10 nM
5 | CNS(=O)(=O)c1ccc(N2C(C)CCC2C)c(Nc2ncnc3cc(OC)c(OC)cc23)c1 (stereo not drawn) [Example 27, 3-{[6,7-bis(methyloxy)-4-quinazolinyl]amino}-4-(2,5-dimethyl-1-pyrrolidinyl)-N-methylbenzenesulfonamide trifluoroacetate] | 1 to 10 nM
6 | CNS(=O)(=O)c1cc(Nc2ncnc3cc(OC)cc(OC)c23)c(OC)cc1F [Example 51, 5-{[5,7-bis(methyloxy)-4-quinazolinyl]amino}-2-fluoro-N-methyl-4-(methyloxy) benzenesulfonamide trifluoroacetate] | 10 to 100 nM
7 | CCOc1cc(OC)cc2ncnc(Nc3cc(S(=O)(=O)NC)ccc3OC(F)(F)F)c12 [Example 64, 3-{[5-(ethyloxy)-7-(methyloxy)-4-quinazolinyl]amino}-N-methyl-4-[(trifluoromethyl)oxy] benzenesulfonamide] | 10 to 100 nM
8 | CNS(=O)(=O)c1ccc(OCC(F)(F)F)c(Nc2ncnc3cc(OCCCOC)ccc23)c1 [Example 75, N-methyl-3-[(7-{[3-(methyloxy)propyl]oxy}-4-quinazolinyl)amino]-4-[(2,2,2-trifluoroethyl)oxy]benzenesulfonamide] | 10 to 100 nM
9 | CNS(=O)(=O)c1ccc(N2CCC[C@@H]2C(F)(F)F)c(Nc2ncnc3cc(OC)c(OC)cc23)c1 [Example 21, 3-{[6,7-bis(methyloxy)-4-quinazolinyl]amino}-N-methyl-4-[(2R)-2-(trifluoromethyl)-1-pyrrolidinyl] benzenesulfonamide trifluoroacetate] | 1 to 10 nM
10 | CNS(=O)(=O)c1ccc(N(C)CC(F)(F)F)c(Nc2ncnc3cc(OC)c(OC)cc23)c1 [Example 35, 3-{[6,7-bis(methyloxy)-4-quinazolinyl]amino}-N-methyl-4-[methyl(2,2,2-trifluoroethyl)amino] benzenesulfonamide trifluoroacetate] | 1 to 10 nM
11 | CNS(=O)(=O)c1ccc(OCC(F)(F)F)c(Nc2ncnc3cc(OC)cc(OC)c23)c1 [Example 31, 3-{[5,7-bis(methyloxy)-4-quinazolinyl]amino}-N-methyl-4-[(2,2,2-trifluoroethyl)oxy]benzenesulfonamide hydrochloride] | 1 to 10 nM
12 | CNS(=O)(=O)c1ccc(OCC(F)(F)F)c(Nc2ncnc3cc(OCCOC)c(OC)cc23)c1 [Example 81, 3-[6-methoxy-7-(2-methoxy-ethoxy)-quinazolin-4-ylamino]-N-methyl-4-(2,2,2-trifluoro-ethoxy)-benzenesulfonamide trifluoroacetate] | 10 to 100 nM
13 | CCN(C)c1ccc(S(=O)(=O)NC)cc1Nc1ncnc2cc(OC)c(OC)cc12 [Example 4, 3-{[6,7-bis(methyloxy)-4-quinazolinyl]amino}-4-[ethyl(methyl)amino]-N-methylbenzenesulfonamide] | 10 to 100 nM
14 | CCOc1cc2ncnc(Nc3cc(S(=O)(=O)NC)ccc3OCC(F)(F)F)c2cc1OCC [Example 71, 3-{[6,7-bis(ethyloxy)-4-quinazolinyl]amino}-N-methyl-4-[(2,2,2-trifluoroethyl)oxy] benzenesulfonamide] | 1 to 10 nM
15 | CNS(=O)(=O)c1cc(Nc2ncnc3cc(OC)cc(OC)c23)c(N(C)C)cc1F [Example 56, 5-{[5,7-bis(methyloxy)-4-quinazolinyl]amino}-4-(dimethylamino)-2-fluoro-N-methylbenzenesulfonamide hydrochloride] | 1 to 10 nM
16 | CNS(=O)(=O)c1ccc(OCC(F)(F)F)c(Nc2ncnc3cc(OC)cc(OC4CCOCC4)c23)c1 [Example 61, N-methyl-3-{[7-(methyloxy)-5-(tetrahydro-2H-pyran-4-yloxy)-4-quinazolinyl]amino}-4-[(2,2,2-trifluoroethyl)oxy] benzenesulfonamide] | 10 to 100 nM
17 | CNS(=O)(=O)c1ccc(N(C)CC(F)(F)F)c(Nc2ncnc3cc(OC)cc(OC)c23)c1 [Example 36, 3-{[5,7-bis(methyloxy)-4-quinazolinyl]amino}-N-methyl-4-[methyl(2,2,2-trifluoroethyl)amino] benzenesulfonamide hydrochloride] | 10 to 100 nM
18 | CNS(=O)(=O)c1ccc(OCC(F)(F)F)c(Nc2ncnc3cc(OC)c(OC(C)C)cc23)c1 [Example 44, N-methyl-3-{[6-[(1-methylethyl)oxy]-7-(methyloxy)-4-quinazolinyl]amino}-4-[(2,2,2-trifluoroethyl)oxy] benzenesulfonamide hydrochloride] | 10 to 100 nM
19 | CNS(=O)(=O)c1ccc(N(C)C)c(Nc2ncnc3cc(OCCCOC)ccc23)c1 [Example 76, 4-(dimethylamino)-N-methyl-3-[(7-{[3-(methyloxy)propyl]oxy}-4-quinazolinyl)amino] benzenesulfonamide] | 1 to 10 nM
20 | CNS(=O)(=O)c1cc(Nc2ncnc3cc(OC)cc(OC)c23)c(OCC(F)(F)F)cc1F [Example 50, 5-{[5,7-bis(methyloxy)-4-quinazolinyl]amino}-2-fluoro-N-methyl-4-[(2,2,2-trifluoroethyl)oxy] benzenesulfonamide trifluoroacetate] | 10 to 100 nM
21 | CNS(=O)(=O)c1cccc(Nc2ncnc3cc(OC)cc(OC)c23)c1 [Example 30, 3-{[5,7-bis(methyloxy)-4-quinazolinyl]amino}-N-methylbenzenesulfonamide hydrochloride] | 10 to 100 nM

Source: patent publication US8859571B2, “Quinazoline compounds” (GlaxoSmithKline LLC, priority 2009, dated 2014)
